Test results taken from US6242494A, “Substituted β-amino acid inhibitors of methionine aminopeptidase-2” (Abbott Laboratories, priority 1999, dated 2001).
Structures can show the parent of a compound that is named as a salt.

What follows are compounds tested against T1, methionine aminopeptidase-2 (MetAP2) (Homo sapiens, UniProt P50579) (assay: Inhibition of MetAP2 enzyme activity (96-well, Met-Ala-Ser substrate, L-amino acid oxidase/peroxidase/ortho-dianisidine, 450 nm)). Conditions: IC50, recombinant MetAP2 4 μg/mL, pH 7.4, Met-Ala-Ser substrate, 20 minutes.
T1 construct: made in house; host or cells: insect cells, baculovirus system (secreted, purified from culture supernatant)
Format: biochemical
Method: The ability of compounds of the present invention to inhibit methionine aminopeptidase 2 was evaluated using the following assay.
Assays for MetAP2 enzyme activity and MetAP2 inhibition were performed in 96-well microtiter plates. Compounds to be tested for MetAP2 inhibition were dissolved in dimethyl-sulfoxide at 10 mM and diluted ten-fold in assay buffer ([…], pH 7.4, 100 mM NaCl). Ten microliters of solution of each compound to be tested for inhibition were introduced into each cell of the plate, with each compound being tested in triplicate.
The absorbence at 450 nanometers was measured every 20 seconds over a period of twenty minutes using an automaic plate reader (Molecular Devices, CA, USA). The Vmax in mOD/min, calculated for each well was used to represent MetAP2 activity. The IC50 for each inhibitor was obtained by plotting the remaining MetAP2 activity versus inhibitor concentration.

T1 sequence (P50579 whole entry): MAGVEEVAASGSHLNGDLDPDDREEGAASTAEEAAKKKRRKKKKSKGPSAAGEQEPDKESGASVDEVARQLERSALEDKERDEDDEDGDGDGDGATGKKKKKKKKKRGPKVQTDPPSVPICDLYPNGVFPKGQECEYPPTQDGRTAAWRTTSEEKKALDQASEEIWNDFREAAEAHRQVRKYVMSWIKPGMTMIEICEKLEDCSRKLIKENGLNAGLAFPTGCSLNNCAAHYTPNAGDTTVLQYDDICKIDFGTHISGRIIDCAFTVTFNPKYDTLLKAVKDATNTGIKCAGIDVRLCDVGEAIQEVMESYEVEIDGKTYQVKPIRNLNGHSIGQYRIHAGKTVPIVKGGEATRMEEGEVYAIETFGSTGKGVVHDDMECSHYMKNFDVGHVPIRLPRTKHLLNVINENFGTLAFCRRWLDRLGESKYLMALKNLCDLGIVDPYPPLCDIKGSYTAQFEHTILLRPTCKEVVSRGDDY

| Structure (SMILES) | IC50 [nM] |
| --- | --- |
| N[C@H](CC1CCCCC1)C(O)C(=O)Nc1cccc(C(F)(F)F)c1 (mixture of isomers) [Example 151, (2RS,3R)-3-amino-4-cyclohexyl-2-hydroxy-N-(3-(trifluoromethyl)phenyl)butanamide] | 430 |
| N[C@H](CC1CCCCC1)C(O)C(=O)Nc1ccc(C(F)(F)F)cc1 (mixture of isomers) [Example 152, (2RS,3R)-3-amino-4-cyclohexyl-2-hydroxy-N-(4-(trifluoromethyl)phenyl)butanamide] | 2400 |
| N[C@H](CC1CCCCC1)C(O)C(=O)Nc1ccc(Cl)c(Cl)c1 (mixture of isomers) [Example 153, (2RS,3R)-3-amino-4-cyclohexyl-N-(3,4-dichlorophenyl)-2-hydroxybutanamide] | 370 |
| N[C@H](CC1CCCCC1)C(O)C(=O)Nc1ccc(Cl)cc1Cl (mixture of isomers) [Example 154, (2RS,3R)-3-amino-4-cyclohexyl-N-(2,4-dichlorophenyl)-2-hydroxybutanamide] | 1900 |
| N[C@H](CC1CCCCC1)C(O)C(=O)NCc1ccc(C(F)(F)F)cc1 (mixture of isomers) [Example 158, (2RS,3R)-3-amino-4-cyclohexyl-2-hydroxy-N-(4-(trifluoromethyl)benzyl)butanamide] | 2800 |
| N[C@H](CC1CCCCC1)C(O)C(=O)NCc1ccccc1Cl (mixture of isomers) [Example 159, (2RS,3R)-3-amino-N-(2-chlorobenzyl)-4-cyclohexyl-2-hydroxybutanamide] | 1500 |
| COc1ccc([N+](=O)[O-])cc1NC(=O)C(O)[C@H](N)CC1CCCCC1 (mixture of isomers) [Example 160, (2RS,3R)-3-amino-4-cyclohexyl-2-hydroxy-N-(2-methoxy-5-nitrophenyl)butanamide hydrochloride] | 900 |
| COc1cc(NC(=O)C(O)[C@H](N)CC2CCCCC2)cc(OC)c1 (mixture of isomers) [Example 161, (2RS,3R)-3-amino-4-cyclohexyl-N-(3,5-dimethoxyphenyl)-2-hydroxybutanamide hydrochloride] | 620 |
| N[C@H](CC1CCCCC1)C(O)C(=O)Nc1cccc(Oc2ccccc2)c1 (mixture of isomers) [Example 162, (2RS,3R)-3-amino-4-cyclohexyl-2-hydroxy-N-(3-phenoxyphenyl)butanamide hydrochloride] | 1200 |
| N[C@H](CC1CCCCC1)C(O)C(=O)NCCc1cccc(F)c1 (mixture of isomers) [Example 166, (2RS,3R)-3-amino-4-cyclohexyl-N-(3-fluorophenethyl)-2-hydroxybutanamide hydrochloride] | 590 |
| N[C@H](CC1CCCCC1)C(O)C(=O)NCCc1ccc(OCc2ccccc2)c(OCc2ccccc2)c1 (mixture of isomers) [Example 167, (2RS,3R)-3-amino-N-(3,4-bis(benzyloxy)phenethyl)-4-cyclohexyl-2-hydroxybutanamide hydrochloride] | 3300 |
| N[C@H](CC1CCCCC1)C(O)C(=O)NCCc1ccc(Oc2ccccc2)cc1 (mixture of isomers) [Example 168, (2RS,3R)-3-amino-4-cyclohexyl-2-hydroxy-N-(4-phenoxyphenethyl)butanamide hydrochloride] | 1500 |
| N[C@H](CC1CCCCC1)C(O)C(=O)Nc1cccc(OC(F)(F)F)c1 (mixture of isomers) [Example 170, (2RS,3R)-3-amino-4-cyclohexyl-2-hydroxy-N-(3-(trifluoromethoxy)phenyl)butanamide hydrochloride] | 1000 |
| Cc1ccccc1NC(=O)C(O)[C@H](N)CC1CCCCC1 (mixture of isomers) [Example 171, (2RS,3R)-3-amino-4-cyclohexyl-2-hydroxy-N-(2-methylphenyl)butanamide hydrochloride] | 950 |
| Cc1cccc(C)c1NC(=O)C(O)[C@H](N)CC1CCCCC1 (mixture of isomers) [Example 172, (2RS,3R)-3-amino-4-cyclohexyl-N-(2,6-dimethylphenyl)-2-hydroxybutanamide hydrochloride] | 5000 |
| Cc1cc(I)ccc1NC(=O)C(O)[C@H](N)CC1CCCCC1 (mixture of isomers) [Example 173, (2RS,3R)-3-amino-4-cyclohexyl-2hydroxy-N-(4-iodo-2-methylphenyl)butanamide hydrochloride] | 580 |
| COc1cc(Nc2ccccc2)ccc1NC(=O)C(O)[C@H](N)CC1CCCCC1 (mixture of isomers) [Example 174, (2RS,3R)-3-amino-N-(4-anilino-2-methoxyphenyl)-4-cyclohexyl-2-hydroxybutanamide hydrochloride] | 1500 |

| Structure (SMILES) | IC50 [nM] |
| --- | --- |
| CCOc1ccccc1NC(=O)C(O)[C@H](N)CC1CCCCC1 (mixture of isomers) [Example 175, (2RS,3R)-3-amino-4-cyclohexyl-N-(2-ethoxyphenyl)-2-hydroxybutanamide hydrochloride] | 2100 |
| COc1cc(Cl)c(C)cc1NC(=O)C(O)[C@H](N)CC1CCCCC1 (mixture of isomers) [Example 176, (2RS,3R)-3-amino-N-(4-chloro-2-methoxy-5-methylphenyl)-4-cyclohexyl-2-hydroxybutanamide hydrochloride] | 3400 |
| COc1ccc(OC)c(NC(=O)C(O)[C@H](N)CC2CCCCC2)c1 (mixture of isomers) [Example 177, (2RS,3R)-3-amino-4cyclohexyl-N-(2,5-dimethoxyphenyl)-2-hydroxybutanamide hydrochloride] | 2000 |
| COc1ccc(NC(C)=O)cc1NC(=O)C(O)[C@H](N)CC1CCCCC1 (mixture of isomers) [Example 178, (2RS,3R)-N-(5-(acetylamino)-2-methoxyphenyl)-3-amino-4-cyclohexyl-2-hydroxybutanamide hydrochloride] | 11000 |
| COc1cc2c(cc1NC(=O)C(O)[C@H](N)CC1CCCCC1)oc1ccccc12 (mixture of isomers) [Example 179, (2RS,3R)-3-amino-4-cyclohexyl-2-hydroxy-N-(2-methoxydibenzo(b,d)furan-3-yl)butanamide hydrochloride] | 4900 |
| COc1cc(OC)c(NC(=O)C(O)[C@H](N)CC2CCCCC2)cc1Cl (mixture of isomers) [Example 180, (2RS,3R)-3-amino-N-(5-chloro-2,4-dimethoxyphenyl)-4-cyclohexyl-2-hydroxybutanamide hydrochloride] | 2000 |
| CCOc1ccc(OCC)c(NC(=O)C(O)[C@H](N)CC2CCCCC2)c1 (mixture of isomers) [Example 181, (2RS,3R)-3-amino-4-cyclohexyl-N-(2,5-diethoxyphenyl)-2-hydroxybutanamide hydrochloride] | 9800 |
| COc1ccc(C(C)(C)C)cc1NC(=O)C(O)[C@H](N)CC1CCCCC1 (mixture of isomers) [Example 182, (2RS,3R)-3-amino-N-(5-(tert-butyl)-2-methoxyphenyl)-4-cyclohexyl-2-hydroxybutanamide hydrochloride] | 8000 |
| N[C@H](CC1CCCCC1)C(O)C(=O)Nc1ccccc1Oc1ccccc1 (mixture of isomers) [Example 183, (2RS,3R)-3-amino-4-cyclohexyl-2-hydroxy-N-(2-phenoxyphenyl)butanamide hydrochloride] | 8700 |
| Cc1ccc([N+](=O)[O-])cc1NC(=O)C(O)[C@H](N)CC1CCCCC1 (mixture of isomers) [Example 184, (2RS,3R)-3-amino-4-cyclohexyl-2-hydroxy-N-(2-methyl-5-nitrophenyl)butanamide hydrochloride] | 430 |
| N[C@H](CC1CCCCC1)C(O)C(=O)Nc1ccc(Oc2ccccc2)cc1 (mixture of isomers) [Example 185, (2RS,3R)-3-amino-4-cyclohexyl-2-hydroxy-N-(4-phenoxyphenyl)butanamide hydrochloride] | 1800 |
| COc1ccc(CNC(=O)C(O)[C@H](N)CC2CCCCC2)cc1 (mixture of isomers) [Example 186, (2RS,3R)-3-amino-4-cyclohexyl-2-hydroxy-N-(4-methoxybenzyl)butanamide hydrochloride] | 1100 |
| Cc1ccc(CNC(=O)C(O)[C@H](N)CC2CCCCC2)cc1 (mixture of isomers) [Example 187, (2RS,3R)-3-amino-4-cyclohexyl-2-hydroxy-N-(4-methylbenzyl)butanamide hydrochloride] | 1200 |
| N[C@H](CC1CCCCC1)C(O)C(=O)NCc1cccc(Cl)c1 (mixture of isomers) [Example 188, (2RS,3R)-3-amino-N-(3-chlorobenzyl)-4-cyclohexyl-2-hydroxybutanamide hydrochloride] | 1600 |
| COc1cccc(CNC(=O)C(O)[C@H](N)CC2CCCCC2)c1 (mixture of isomers) [Example 189, (2RS,3R)-3-amino-4-cyclohexyl-2-hydroxy-N-(3-methoxybenzyl)butanamide hydrochloride] | 1500 |
| N[C@H](CC1CCCCC1)C(O)C(=O)NCc1ccc(Br)cc1 (mixture of isomers) [Example 190, (2RS,3R)-3-amino-N-(4-bromobenzyl)-4-cyclohexyl-2-hydroxybutanamide hydrochloride] | 1300 |
| Cc1cccc(CNC(=O)C(O)[C@H](N)CC2CCCCC2)c1 (mixture of isomers) [Example 191, (2RS,3R)-3-amino-4-cyclohexyl-2hydroxy-N-(3-methylbenzyl)butanamide hydrochloride] | 2500 |
